Patent US20250163048A1 (Tango Therapeutics, Inc., priority 2022, published 2025)
Where two headings read alike, the source gives them in different places.

What was measured:
[1] = tested on: MTAP-deleted cell line; test: viability assay for the MTAP-deleted cell line; type: cell-based; details: Homo sapiens, HAP1, viability assay
[2] = tested on: HAP1 MTAP-intact cell line; test: SDMA in-cell western assay, HAP1 MTAP-intact; details: Homo sapiens
[3] = tested on: HAP1 MTAP-deleted cell line; test: SDMA in-cell western assay, HAP1 MTAP-deleted; details: for IC50 / IC90: Homo sapiens; for Hap1 MTAP intact/deleted ratio: IC50 ratio between HAP1 MTAP-intact and HAP1 MTAP-deleted cell line
[4] = HAP1, read-out: Hap1 MTAP intact IC50, SDMA in-cell western, HAP1 MTAP-intact cell line
[5] = HAP1, read-out: Hap1 MTAP deleted IC50, SDMA in-cell western, HAP1 MTAP-deleted cell line
[6] = HAP1, read-out: Hap1 MTAP deleted IC90, SDMA in-cell western, HAP1 MTAP-deleted cell line

## C[C@H]1CC[C@H]([C@H]2CCCOC2)N(C(=O)C(=O)Nc2cnc(N)c3cn[nH]c23)C1 (mixture of isomers) [Compound 140, N-(4-amino-1H-pyrazolo[4,3-c]pyridin-7-yl)-2-((2R,5S)-5-methyl-2-(rac-(R)-tetrahydro-2H-pyran-3-yl)piperidin-1-yl)-2-oxoacetamide]
[1]
  IC50: 100 to 1000 nM
[2]; [4]
  IC50: > 50 nM
[3]; [5]
  IC50: 5 to 50 nM
[3]; [6]
  IC90: > 125 nM
[3]; SDMA in-cell western
  Hap1 MTAP intact/deleted ratio: A (“A” indicates an IC50 ratio greater than or equal to 30 fold)

## Nc1ncc(NC(=O)C(=O)N2CCCC[C@@H]2C2CCCC2)c2[nH]ncc12 (stereo in doubt) [Compound 127, N-(4-amino-1H-pyrazolo[4,3-c]pyridin-7-yl)-2-(2-cyclopentylpiperidin-1-yl)-2-oxoacetamide]
[1]
  IC50: < 100 nM
[2]; [4]
  IC50: > 50 nM
[3]; [5]
  IC50: < 5 nM
[3]; [6]
  IC90: < 75 nM
[3]; SDMA in-cell western
  Hap1 MTAP intact/deleted ratio: A (“A” indicates an IC50 ratio greater than or equal to 30 fold)

## C[C@H]1CC[C@H](c2ccc3sc([C@@H]4CCN(C)C[C@H]4C)nc3c2)N(C(=O)C(=O)Nc2cncc3cn[nH]c23)C1 (relative stereo) [Compound 71, 2-oxo-N-(1H-pyrazolo[4,3-c]pyridin-7-yl)-2-[(2R,5S)-5-methyl-2-[2-[rel-(3S,4R)-1,3-dimethyl-4-piperidyl]-1,3-benzothiazol-5-yl]-1-piperidyl]acetamide]
[1]
  IC50: < 100 nM
[2]; [4]
  IC50: 5 to 50 nM
[3]; [5]
  IC50: < 5 nM
[3]; [6]
  IC90: < 75 nM
[3]; SDMA in-cell western
  Hap1 MTAP intact/deleted ratio: C (“C” indicates an IC50 ratio of less than 15 fold)

## CO[C@@H]1C[C@H](c2ccc(F)cc2)N(C(=O)C(=O)Nc2cnc(N)c3cn[nH]c23)C[C@H]1C (single isomer, unassigned) [Compound 116]
[1]
  IC50: < 100 nM
[2]; [4]
  IC50: > 50 nM
[3]; [5]
  IC50: < 5 nM
[3]; [6]
  IC90: < 75 nM
[3]; SDMA in-cell western
  Hap1 MTAP intact/deleted ratio: A (“A” indicates an IC50 ratio greater than or equal to 30 fold)

## C[C@H]1CC[C@H](c2cccc3c2OCC3)N(C(=O)C(=O)Nc2cnc(N)c3cn[nH]c23)C1 (racemic) [Compound 255, N-(4-Amino-1H-pyrazolo[4,3-c]pyridin-7-yl)-2-oxo-2-[rac-(2R,5S)-2-(2,3-dihydrobenzofuran-7-yl)-5-methyl-1-piperidyl]acetamide]
[1]
  IC50: < 100 nM
[2]; HAP1, read-out: Hap1 MTAP intact IC50, SDMA in-cell western assay, HAP1 MTAP-intact cell line
  IC50: 5 to 50 nM
[3]; HAP1, read-out: Hap1 MTAP deleted IC50, SDMA in-cell western assay, HAP1 MTAP-deleted cell line
  IC50: < 5 nM
[3]; HAP1, read-out: Hap1 MTAP deleted IC90, SDMA in-cell western assay, HAP1 MTAP-deleted cell line
  IC90: < 75 nM
[3]; SDMA in-cell western assay
  Hap1 MTAP intact/deleted ratio: B (“B” indicates an IC50 ratio greater than or equal to 15 fold but lower than 30 fold)

## C[C@H]1CC[C@H](c2ccc3sc(C4(CN(C)C)CC4)nc3c2)N(C(=O)C(=O)Nc2cncc3cn[nH]c23)C1 [Compound 60, 2-((2R,5S)-2-(2-(1-((dimethylamino)methyl)cyclopropyl)benzo[d]thiazol-5-yl)-5-methylpiperidin-1-yl)-2-oxo-N-(1H-pyrazolo[4,3-c]pyridin-7-yl)acetamide]
[1]
  IC50: < 100 nM
[2]; [4]
  IC50: > 50 nM
[3]; [5]
  IC50: < 5 nM
[3]; [6]
  IC90: < 75 nM
[3]; SDMA in-cell western
  Hap1 MTAP intact/deleted ratio: B (“B” indicates an IC50 ratio greater than or equal to 15 fold but lower than 30 fold)

## CCn1ncc2cc([C@H]3CC[C@H](C)CN3C(=O)C(=O)Nc3cnc(N)c4cn[nH]c34)ccc21 (racemic) [Compound 189, N-(4-Amino-1H-pyrazolo[4,3-c]pyridin-7-yl)-2-oxo-2-[rac-(2R,5S)-2-(1-ethylindazol-5-yl)-5-methyl-1-piperidyl]acetamide]
[1]
  IC50: < 100 nM
[2]; [4]
  IC50: 5 to 50 nM
[3]; [5]
  IC50: < 5 nM
[3]; [6]
  IC90: < 75 nM
[3]; SDMA in-cell western
  Hap1 MTAP intact/deleted ratio: C (“C” indicates an IC50 ratio of less than 15 fold)

## C[C@H]1CC[C@H](c2ccc3sc(C4CC(C)(C)N(C)C(C)(C)C4)nc3c2)N(C(=O)C(=O)Nc2cncc3c(N)nccc23)C1 [Compound 46, N-(8-amino-2,7-naphthyridin-4-yl)-2-((2R,5S)-5-methyl-2-(2-(1,2,2,6,6-pentamethylpiperidin-4-yl)benzo[d]thiazol-5-yl)piperidin-1-yl)-2-oxoacetamide]
[1]
  IC50: < 100 nM
[2]; [4]
  IC50: > 50 nM
[3]; [5]
  IC50: < 5 nM
[3]; [6]
  IC90: < 75 nM
[3]; SDMA in-cell western
  Hap1 MTAP intact/deleted ratio: A (“A” indicates an IC50 ratio greater than or equal to 30 fold)
